{
  "source": "ChEMBL document CHEMBL5634141",
  "about": "(Eur J Med Chem, 2023)",
  "key": {"NCI-H358 [1]": {"system": "NCI-H358", "assay": "Induction of apoptosis in human NCI-H358 cells assessed as early apoptotic cells at 30 nM incubated for 48 hrs by Annexin V-FITC staining based flow cytometry analysis (reference value: 1.60 %)", "assay_type": "functional"}, "NCI-H358 [2]": {"system": "NCI-H358", "assay": "Synergistic antiproliferative activity against human NCI-H358 cells expressing KRAS G12C mutant assessed as combination index incubated for 72 hrs in presence of AZD4573 by CCK-8 assay", "assay_type": "functional"}, "NCI-H358 [3]": {"system": "NCI-H358", "assay": "Induction of apoptosis in human NCI-H358 cells assessed as late apoptotic cells at 30 nM incubated for 48 hrs by Annexin V-FITC staining based flow cytometry analysis (reference value: 5.20 %)", "assay_type": "functional"}, "SW837": {"system": "SW837", "assay": "Antiproliferative activity against human SW837 cells expressing KRAS G12C mutant assessed as relative cell viability at 30 nM incubated for 72 hrs in presence of selumetinib by CCK-8 assay", "assay_type": "functional", "conditions": "read-out: Activity"}, "[4]": {"system": "von Hippel-Lindau disease tumor suppressor/GTPase KRas (Homo sapiens), P01116+P40337 [G12C]", "assay": "Protac activity at VHL/KRAS G12C mutant in human MIA PaCa-2 cells assessed as induction of protein degradation in presence of VH032 by Western blot analysis", "assay_type": "cell-based"}, "[5]": {"assay": "Half life in ICR mouse at 30 mg/kg, ip measured after 24 hrs by LC-MS/MS analysis", "assay_type": "ADME, organism-based", "conditions": "in vivo"}, "MIA PaCa-2 [6]": {"system": "MIA PaCa-2", "assay": "Induction of apoptosis in human MIA PaCa-2 cells assessed as necrotic cells at 100 nM incubated for 48 hrs by Annexin V-FITC staining based flow cytometry analysis (reference value: 1.25 %)", "assay_type": "functional"}, "Calu-1 [7]": {"system": "Calu-1", "assay": "Antiproliferative activity against human Calu-1 cells expressing KRAS G12C mutant assessed as relative cell viability at 30 nM incubated for 72 hrs in presence of crizotinib by CCK-8 assay", "assay_type": "functional", "conditions": "read-out: Activity"}, "NCI-H358 [8]": {"system": "NCI-H358", "assay": "Antiproliferative activity against human NCI-H358 cells expressing KRAS G12C mutant assessed as inhibition of cell growth at 100 nM incubated for 8 days by CCK-8 assay", "assay_type": "functional, cell-based", "conditions": "time 8.0 day"}, "NCI-H358 [9]": {"system": "NCI-H358", "assay": "Antiproliferative activity against human NCI-H358 cells expressing KRAS G12C mutant assessed as relative cell viability at 30 nM incubated for 72 hrs in presence of daclolisib by CCK-8 assay", "assay_type": "functional", "conditions": "read-out: Activity"}, "NCI-H358 [10]": {"system": "NCI-H358", "assay": "Induction of cell cycle arrest in human NCI-H358 cells assessed as accumulation of cells at G2/M phase incubated for 48 hrs by propidium iodide staining based flow cytometry analysis", "assay_type": "functional", "conditions": "dose 30-300 nM"}, "MIA PaCa-2 [11]": {"system": "MIA PaCa-2", "assay": "Induction of apoptosis in human MIA PaCa-2 cells assessed as late apoptotic cells at 300 nM incubated for 48 hrs by Annexin V-FITC staining based flow cytometry analysis (reference value: 5.69 %)", "assay_type": "functional"}, "MIA PaCa-2 [12]": {"system": "MIA PaCa-2", "assay": "Induction of apoptosis in human MIA PaCa-2 cells assessed as necrotic cells at 30 nM incubated for 48 hrs by Annexin V-FITC staining based flow cytometry analysis (reference value: 1.25 %)", "assay_type": "functional"}, "MIA PaCa-2 [13]": {"system": "MIA PaCa-2", "assay": "Antiproliferative activity against human MIA PaCa-2 cells expressing KRAS G12C mutant assessed as reduction of cell growth by measuring fold decrease in IC50 incubated for 72 hrs in presence of SHP099 by CCK-8 assay", "assay_type": "functional"}, "[14]": {"system": "von Hippel-Lindau disease tumor suppressor/GTPase KRas (Homo sapiens), P01116+P40337 [G12C]", "assay": "PROTAC activity at VHL/KRAS G12C mutant in human MIA PaCa-2 cells assessed as induction of protein degradation at 100 nM incubated for 1 to 8 days by Western blotting analysis", "assay_type": "cell-based", "conditions": "time 1-8 day"}, "MIA PaCa-2 [15]": {"system": "MIA PaCa-2", "assay": "Antiproliferative activity against human MIA PaCa-2 cells expressing KRAS G12C mutant assessed as relative cell viability at 30 nM incubated for 72 hrs in presence of daclolisib by CCK-8 assay", "assay_type": "functional", "conditions": "read-out: Activity"}, "MIA PaCa-2 [16]": {"system": "MIA PaCa-2", "assay": "Antiproliferative activity against human MIA PaCa-2 cells expressing KRAS G12C mutant assessed as reduction of cell growth by measuring fold decrease in IC50 incubated for 72 hrs in presence of Linsitinib by CCK-8 assay", "assay_type": "functional"}, "MIA PaCa-2 [17]": {"system": "MIA PaCa-2", "assay": "Antiproliferative activity against human MIA PaCa-2 cells expressing KRAS G12C mutant assessed as relative cell viability at 30 nM incubated for 72 hrs in presence of MK-2206 by CCK-8 assay", "assay_type": "functional", "conditions": "read-out: Activity"}, "MIA PaCa-2 [18]": {"system": "MIA PaCa-2", "assay": "Induction of apoptosis in human MIA PaCa-2 cells assessed as viable cells at 300 nM incubated for 48 hrs by Annexin V-FITC staining based flow cytometry analysis (reference value: 91.5 %)", "assay_type": "functional", "conditions": "read-out: Activity"}, "NCI-H358 [19]": {"system": "NCI-H358", "assay": "Induction of apoptosis in human NCI-H358 cells assessed as necrotic cells at 30 nM incubated for 48 hrs by Annexin V-FITC staining based flow cytometry analysis (reference value: 1.62 %)", "assay_type": "functional"}, "NCI-H358 [20]": {"system": "NCI-H358", "assay": "Synergistic antiproliferative activity against human NCI-H358 cells expressing KRAS G12C mutant assessed as combination index incubated for 72 hrs in presence of SHP099 by CCK-8 assay", "assay_type": "functional"}, "[21]": {"system": "von Hippel-Lindau disease tumor suppressor/GTPase KRas (Homo sapiens), P01116+P40337 [G12C]", "assay": "PROTAC activity at VHL/KRAS G12C mutant in human MIA PaCa-2 cells assessed as induction of protein degradation in presence of AMG510 by Western blotting analysis", "assay_type": "cell-based"}, "NCI-H23": {"system": "NCI-H23", "assay": "Antiproliferative activity against human NCI-H23 cells expressing KRAS G12C mutant assessed as relative cell viability at 30 nM incubated for 72 hrs in presence of crizotinib by CCK-8 assay", "assay_type": "functional", "conditions": "read-out: Activity"}, "[22]": {"system": "von Hippel-Lindau disease tumor suppressor/GTPase KRas (Homo sapiens), P01116+P40337 [G12C]", "assay": "PROTAC activity at VHL/KRAS G12C mutant in human MIA PaCa-2 cells assessed as induction of protein degradation by measuring maximal efficacy by Western blotting analysis relative to control", "assay_type": "cell-based"}, "[23]": {"assay": "AUC (0 to t) in ICR mouse at 2 mg/kg, iv measured after 24 hrs by LC-MS/MS analysis", "assay_type": "ADME, organism-based", "conditions": "in vivo"}, "MIA PaCa-2 [24]": {"system": "MIA PaCa-2", "assay": "Induction of apoptosis in human MIA PaCa-2 cells assessed as early apoptotic cells at 30 nM incubated for 48 hrs by Annexin V-FITC staining based flow cytometry analysis (reference value: 1.55 %)", "assay_type": "functional"}, "MIA PaCa-2 [25]": {"system": "MIA PaCa-2", "assay": "Inhibition of colony formation in human MIA PaCa-2 cells expressing KRAS G12C mutant assessed as reduction in cell number at 30 nM incubated for 14 days in presence of linsitinib by crystal violet staining based analysis", "assay_type": "functional", "conditions": "time 14.0 day"}, "MIA PaCa-2 [26]": {"system": "MIA PaCa-2", "assay": "Induction of apoptosis in human MIA PaCa-2 cells assessed as early apoptotic cells at 100 nM incubated for 48 hrs by Annexin V-FITC staining based flow cytometry analysis (reference value: 1.55 %)", "assay_type": "functional"}, "NCI-H358 [27]": {"system": "NCI-H358", "assay": "Induction of apoptosis in human NCI-H358 cells assessed as late apoptotic cells at 300 nM incubated for 48 hrs by Annexin V-FITC staining based flow cytometry analysis (reference value: 5.20 %)", "assay_type": "functional"}, "Calu-1 [28]": {"system": "Calu-1", "assay": "Antiproliferative activity against human Calu-1 cells expressing KRAS G12C mutant assessed as relative cell viability at 30 nM incubated for 72 hrs in presence of selumetinib by CCK-8 assay", "assay_type": "functional", "conditions": "read-out: Activity"}, "[29]": {"system": "von Hippel-Lindau disease tumor suppressor/GTPase KRas (Homo sapiens), P01116+P40337 [G12C]", "assay": "PROTACactivity at VHL/KRAS G12C mutant in human NCI-H358 cells assessed as induction of protein degradation by measuring maximal efficacy incubated for 72 hrs by Western blot analysis relative to control", "assay_type": "cell-based"}},
  "note": "Calls of active or inactive are those of the source. No cut-off for these calls is given here.",
  "data": [
    {"smiles": "C=CC(=O)N1CCN(c2nc(=O)n(-c3c(C)ccnc3C(C)C)c3nc(-c4c(F)cccc4OCC4CCN(CCCC(=O)N[C@H](C(=O)N5C[C@H](O)C[C@H]5C(=O)NCc5ccc(-c6scnc6C)cc5)C(C)(C)C)CC4)c(F)cc23)[C@@H](C)C1", "values": [
      {"measurement": "Activity", "setting": "NCI-H358 [1]", "result": 3.48, "unit": "%"},
      {"measurement": "CI", "setting": "NCI-H358 [2]", "result": "<1"},
      {"measurement": "Activity", "setting": "NCI-H358 [3]", "result": 6.13, "unit": "%"},
      {"measurement": "viability at 0.03 µM", "setting": "SW837", "result": 0.2, "unit": "%"},
      {"measurement": "Activity", "setting": "[4]", "result": "inactive"},
      {"measurement": "half-life", "setting": "[5]", "result": 232, "unit": "min"},
      {"measurement": "Activity", "setting": "MIA PaCa-2 [6]", "result": 4.09, "unit": "%"},
      {"measurement": "viability at 0.03 µM", "setting": "Calu-1 [7]", "result": 0.31, "unit": "%"},
      {"measurement": "Activity", "setting": "NCI-H358 [8]", "result": "Active"},
      {"measurement": "viability at 0.03 µM", "setting": "NCI-H358 [9]", "result": 0.29, "unit": "%"},
      {"measurement": "Activity", "setting": "NCI-H358 [10]", "result": "Dose-Dependent Effect"},
      {"measurement": "Activity", "setting": "MIA PaCa-2 [11]", "result": 19.9, "unit": "%"},
      {"measurement": "Activity", "setting": "MIA PaCa-2 [12]", "result": 1.37, "unit": "%"},
      {"measurement": "fold change (FC)", "setting": "MIA PaCa-2 [13]", "result": "~4"},
      {"measurement": "Activity", "setting": "[14]", "result": "Active"},
      {"measurement": "viability at 0.03 µM", "setting": "MIA PaCa-2 [15]", "result": 0.17, "unit": "%"},
      {"measurement": "fold change (FC)", "setting": "MIA PaCa-2 [16]", "result": "~3"},
      {"measurement": "viability at 0.03 µM", "setting": "MIA PaCa-2 [17]", "result": 0.24, "unit": "%"},
      {"measurement": "viability at 0.3 µM", "setting": "MIA PaCa-2 [18]", "result": 66.4, "unit": "%"},
      {"measurement": "Activity", "setting": "NCI-H358 [19]", "result": 1.01, "unit": "%"},
      {"measurement": "CI", "setting": "NCI-H358 [20]", "result": "<1"},
      {"measurement": "Activity", "setting": "[21]", "result": "inactive"},
      {"measurement": "viability at 0.03 µM", "setting": "NCI-H23", "result": 0.33, "unit": "%"},
      {"measurement": "Emax", "setting": "[22]", "result": "> 95", "unit": "%"},
      {"measurement": "AUC(0-t) at 24 h", "setting": "[23]", "result": 399, "unit": "ng·h/mL"},
      {"measurement": "Activity", "setting": "MIA PaCa-2 [24]", "result": 2.66, "unit": "%"},
      {"measurement": "inhibition", "setting": "MIA PaCa-2 [25]", "result": "Active"},
      {"measurement": "Activity", "setting": "MIA PaCa-2 [26]", "result": 6.73, "unit": "%"},
      {"measurement": "Activity", "setting": "NCI-H358 [27]", "result": 14.6, "unit": "%"},
      {"measurement": "viability at 0.03 µM", "setting": "Calu-1 [28]", "result": 0.13, "unit": "%"},
      {"measurement": "Emax", "setting": "[29]", "result": "> 95", "unit": "%"}
    ]}
  ]
}
